Assay results from patent US20260234101A1, “COMPOUNDS, THEIR COMPOSITION AND THEIR USE AS NEMATICIDES” (priority 2023, published 2026).

Key:
[1] = system: Root-knot nematodes (Meloidogyne spp), juveniles (J2); experiment: Nematocidal activity against root-knot nematodes, 24 well bioassay plate, percent mortality; type: in vivo; conditions: 70-100 J2 juveniles per well, 22±2° C., 70±5% RH, dead/inactive counted at 24, 48, 72 and 96 hours, read-out: Rating (% Mortality)
Protocol: The compound to be tested (4 mg) was dissolved in 40 μl of DMSO to make 100,000 PPM concentration stock solution. The clear solution was obtained by vortexing. The nematode suspension (250 μl) having 70-100 juveniles (J2) of Root-knot nematodes Meloidogyne spp. pipetted out to each cell of 24 well bioassay plate. Sterile water (1 ml) was pipetted out in fresh 2.5 ml Eppendorf micro-centrifuge tubes. The desired concentration (500 ppm) of the compound was prepared by adding stock solution in 2.5 ml Eppendorf micro-centrifuge tubes. For each treatment 4 replications were maintained. The bioassay plates were incubated at 22±2° C. and 70±5% RH in humidity chambers.

[2] = Stability studies: storage at room temperature and accelerated storage condition, purity estimated by HPLC; type: physicochemical; conditions: properly packed material; for purity estimated by HPLC, Day 14, Condition 54° C. ± 2° C. / purity estimated by HPLC, Day Zero, Condition 54° C. ± 2° C.: 54° C. ± 2° C. (accelerated storage)
Excerpt: The compounds of present invention were stored under conditions as shown in below table [room temperature and on accelerated storage condition (ATS)] and the purity was estimated by HPLC. The properly packed material was subjected to the conditions mentioned in the table below.

Structure (SMILES) | mortality at 500 ppm [1] [%] | also measured
COc1ccc(/C=N/[C@@H](CCCNC(=N)N)C(=O)O)cc1O [Example 17, (E)-N^2-[(3-hydroxy-4-methoxyphenyl)methylidene]-L-arginine] | 0 to 49 | –
Cc1cc(O)cc(O)c1/C=N/[C@@H](CCCNC(=N)N)C(=O)O [Example 12, (E)-N^2-[(2,4-dihydroxy-6-methylphenyl)methylidene]-L-arginine] | 0 to 49 | –
N=C(N)NCCC[C@H](/N=C/c1ccc2ccccc2c1)C(=O)O [Example 30, (E)-N2-[(naphthalen-2-yl)methylidene]-L-arginine] | 70 to 100 | purity estimated by HPLC, Day 14, Condition 25° C. ± 2° C. [2]: 99.65; purity estimated by HPLC, Day 14, Condition 54° C. ± 2° C. [2]: 99.45; purity estimated by HPLC, Day Zero, Condition 25° C. ± 2° C. [2]: 99.70; purity estimated by HPLC, Day Zero, Condition 54° C. ± 2° C. [2]: 99.65
N=C(N)NCCC[C@H](/N=C/c1c(O)cccc1Cl)C(=O)O [Example 4, (E)-N^2-[(6-chloro-2-hydroxyphenyl)methylidene]-L-arginine] | 50 to 69 | –
COc1ccc(O)c(/C=N/[C@@H](CCCNC(=N)N)C(=O)O)c1 [Example 10, (E)-N^2-[(2-hydroxy-5-methoxyphenyl)methylidene]-L-arginine] | 50 to 69 | –
C=CCc1cc(/C=N/[C@@H](CCCNC(=N)N)C(=O)O)c(O)c(OC)c1 [Example 20, (E)-N^2-{[2-hydroxy-3-methoxy-5-(prop-2-en-1-yl)phenyl]methylidene}-L-arginine] | 70 to 100 | –
N=C(N)NCCC[C@H](/N=C/c1cc(F)cc(Cl)c1O)C(=O)O [Example 15, (E)-N^2-[(3-chloro-5-fluoro-2-hydroxyphenyl)methylidene]-L-arginine] | 0 to 49 | –
CSc1ccc(/C=N/[C@@H](CCCNC(=N)N)C(=O)O)cc1 [Example 19, (E)-N^2-{[4-(methylsulfanyl)phenyl]methylidene}-L-arginine] | 50 to 69 | –
N=C(N)NCCC[C@H](/N=C/c1ccsc1)C(=O)O [Example 31, (E)-N2-[(thiophen-3-yl)methylidene]-L-arginine] | 50 to 69 | –
N=C(N)NCCC[C@H](/N=C/c1cccc2ccccc12)C(=O)O [Example 28, (E)-N2-[(naphthalen-1-yl)methylidene]-L-arginine] | 50 to 69 | –
N=C(N)NCCC[C@H](/N=C/c1ccc(F)cc1O)C(=O)O [Example 6, (E)-N^2-[(4-fluoro-2-hydroxyphenyl)methylidene]-L-arginine] | 70 to 100 | –
N=C(N)NCCC[C@H](/N=C/c1ccco1)C(=O)O [Example 25, (E)-N^2-[(furan-2-yl)methylidene]-L-arginine] | 70 to 100 | –
Cc1ccc(/C=N/[C@@H](CCCNC(=N)N)C(=O)O)o1 [Example 26, (E)-N^2-[(5-methylfuran-2-yl)methylidene]-L-arginine] | 70 to 100 | purity estimated by HPLC, Day 14, Condition 25° C. ± 2° C. [2]: 99.10; purity estimated by HPLC, Day 14, Condition 54° C. ± 2° C. [2]: 99.00; purity estimated by HPLC, Day Zero, Condition 25° C. ± 2° C. [2]: 99.20; purity estimated by HPLC, Day Zero, Condition 54° C. ± 2° C. [2]: 99.00
C=CCc1cccc(/C=N/[C@@H](CCCNC(=N)N)C(=O)O)c1O [Example 22, (E)-N2-{[2-hydroxy-3-(prop-2-en-1-yl)phenyl]methylidene}-L-arginine] | 70 to 100 | purity estimated by HPLC, Day 14, Condition 25° C. ± 2° C. [2]: 99.50; purity estimated by HPLC, Day 14, Condition 54° C. ± 2° C. [2]: 99.30; purity estimated by HPLC, Day Zero, Condition 25° C. ± 2° C. [2]: 99.60; purity estimated by HPLC, Day Zero, Condition 54° C. ± 2° C. [2]: 99.63
COc1ccc(/C=N/[C@@H](CCCNC(=N)N)C(=O)O)cc1 [Example 16, (E)-N^2-[(4-methoxyphenyl)methylidene]-L-arginine] | 70 to 100 | –
N=C(N)NCCC[C@H](/N=C/c1cccc2c1OCO2)C(=O)O [Example 34, (E)-N2-[(2H-1,3-benzodioxol-4-yl)methylidene]-L-arginine] | 50 to 69 | –
N=C(N)NCCC[C@H](/N=C/c1ccccc1C(F)(F)F)C(=O)O [Example 1, (E)-N^2-{[2-(trifluoromethyl)phenyl]methylidene}-L-arginine] | 70 to 100 | –

Structure (SMILES) | mortality at 500 ppm [1] [%] | also measured
COc1cccc(O)c1/C=N/[C@@H](CCCNC(=N)N)C(=O)O [Example 11, (E)-N^2-[(2-hydroxy-6-methoxyphenyl)methylidene]-L-arginine] | 70 to 100 | purity estimated by HPLC, Day 14, Condition 25° C. ± 2° C. [2]: 99.00; purity estimated by HPLC, Day 14, Condition 54° C. ± 2° C. [2]: 98.85; purity estimated by HPLC, Day Zero, Condition 25° C. ± 2° C. [2]: 99.10; purity estimated by HPLC, Day Zero, Condition 54° C. ± 2° C. [2]: 99.20
N=C(N)NCCC[C@H](/N=C/c1cccc(C(F)(F)F)c1)C(=O)O [Example 2, (E)-N^2-{[3-(trifluoromethyl)phenyl]methylidene}-L-arginine] | 70 to 100 | purity estimated by HPLC, Day 14, Condition 25° C. ± 2° C. [2]: 99.70; purity estimated by HPLC, Day 14, Condition 54° C. ± 2° C. [2]: 99.55; purity estimated by HPLC, Day Zero, Condition 25° C. ± 2° C. [2]: 99.71; purity estimated by HPLC, Day Zero, Condition 54° C. ± 2° C. [2]: 99.60
N=C(N)NCCC[C@H](/N=C/c1cc(F)ccc1O)C(=O)O [Example 7, (E)-N^2-[(5-fluoro-2-hydroxyphenyl)methylidene]-L-arginine] | 70 to 100 | –
COc1ccc(/C=N/[C@@H](CCCNC(=N)N)C(=O)O)cc1Cl [Example 18, (E)-N^2-[(3-chloro-4-methoxyphenyl)methylidene]-L-arginine] | 50 to 69 | –
N=C(N)NCCC[C@H](/N=C/c1ccc(Cl)cc1O)C(=O)O [Example 3, (E)-N^2-[(4-chloro-2-hydroxyphenyl)methylidene]-L-arginine] | 50 to 69 | –
C=CCc1cccc(/C=N/[C@@H](CCCNC(=N)N)C(=O)O)c1OC [Example 32, (E)-N2-{[2-methoxy-3-(prop-2-en-1-yl)phenyl]methylidene}-L-arginine] | 50 to 69 | –
N=C(N)NCCC[C@H](/N=C/c1cc(OC(F)(F)F)ccc1O)C(=O)O [Example 14, (E)-N^2-{[2-hydroxy-5-(trifluoromethoxy)phenyl]methylidene}-L-arginine] | 50 to 69 | –
N=C(N)NCCC[C@H](/N=C/c1cccc(F)c1O)C(=O)O [Example 5, (E)-N^2-[(3-fluoro-2-hydroxyphenyl)methylidene]-L-arginine] | 70 to 100 | –
C=CCc1cc(/C=N/[C@@H](CCCNC(=N)N)C(=O)O)c(OC)c(OC)c1 [Example 21, (E)-N^2-{[2,3-dimethoxy-5-(prop-2-en-1-yl)phenyl]methylidene}-L-arginine] | 70 to 100 | –
COc1cccc(/C=N/[C@@H](CCCNC(=N)N)C(=O)O)c1O [Example 9, (E)-N^2-[(2-hydroxy-3-methoxyphenyl)methylidene]L-arginine] | 0 to 49 | –
N=C(N)NCCC[C@H](/N=C/c1cccnc1)C(=O)O [Example 29, (E)-N2-[(pyridin-3-yl)methylidene]-L-arginine] | 50 to 69 | –
N=C(N)NCCC[C@H](/N=C/c1c[nH]c2ccccc12)C(=O)O [Example 23, (E)-N^2-[(1H-indol-3-yl)methylidene]-L-arginine] | 50 to 69 | –
COc1ccc(/C=N/[C@@H](CCCNC(=N)N)C(=O)O)c(OC)c1 [Example 13, (E)-N^2-[(2,4-dimethoxyphenyl)methylidene]-L-arginine] | 0 to 49 | –
COc1cc(/C=N/[C@@H](CCCNC(=N)N)C(=O)O)cc2c1OCO2 [Example 33, (E)-N2-[(7-methoxy-2H-1,3-benzodioxol-5-yl)methylidene]-L-arginine] | 50 to 69 | –
N=C(N)NCCC[C@H](/N=C/c1ccc(CO)o1)C(=O)O [Example 27, (E)-N^2-{[5-(hydroxymethyl)furan-2-yl]methylidene}-L-arginine] | 50 to 69 | –
N=C(N)NCCC[C@H](/N=C/c1c(O)cccc1F)C(=O)O [Example 8, (E)-N^2-[(6-fluoro-2-hydroxyphenyl)methylidene]-L-arginine] | 70 to 100 | –
N=C(N)NCCC[C@H](/N=C/c1ccc2c(c1)OCO2)C(=O)O [Example 24, (E)-N^2-[(2H-1,3-benzodioxol-5-yl)methylidene]-L-arginine] | 50 to 69 | purity estimated by HPLC, Day 14, Condition 25° C. ± 2° C. [2]: 98.80; purity estimated by HPLC, Day 14, Condition 54° C. ± 2° C. [2]: 98.90; purity estimated by HPLC, Day Zero, Condition 25° C. ± 2° C. [2]: 98.90; purity estimated by HPLC, Day Zero, Condition 54° C. ± 2° C. [2]: 98.75
